Patent publication US20250320245A1, “Nucleoside Analogues for the Treatment of Parasitic Infections” (Universiteit Antwerpen, priority 2021, published 2025)
Where two headings read alike, the source gives them in different places.

How the values were obtained:
[1] = tested on: T. evansi type A (RoTat 1.2); experiment: In vitro drug susceptibility assay, T. evansi type A; assay type: cell-based
Method: (§1) Drug susceptibility assays with T. brucei (Squib 427), T. evansi type A (RoTat 1.2) and T. equiperdum (BoTat 1.1) were performed under similar conditions. Parasites were cultured in HMI-9 culture medium supplemented with 10% iFBS. To determine in vitro susceptibility of the abovementioned Trypanosoma species, 10 concentrations of a 4-fold dilution series (with a highest in-test concentration of 64 μM) was prepared for each compound, and parasites were seeded at 1.5×10^4 parasite/well. After 72 h of drug exposure at 37° C. with 5% CO2, resazurin was added to the wells (final concentration of 10 μg mL^−1), followed by another incubation for 24 h. Cell viability was determined by fluorescence reading (Tecan®, GENios) and 50% inhibitory concentration (IC50) was calculated for each compound.

[2] = tested on: T. equiperdum (BoTat 1.1); experiment: In vitro drug susceptibility assay, T. equiperdum; assay type: cell-based; details: Trypanosoma equiperdum
Method: as §1

[3] = tested on: T. vivax (ILRAD700); experiment: Ex vivo drug susceptibility assay, T. vivax; assay type: cell-based; details: Trypanosoma vivax
Source text: (§2) T. congolense (IL3000), the isometamidium (ISM)-resistant T. congolense strain (MSORO M7H), T. evansi type A (RoTat 1.2), T. evansi type B (KETRI 2479) and T. equiperdum (BoTat 1.1) used for in vitro, ex vivo and in vivo experiments were kindly provided by the Institute of Tropical Medicine (ITM), and T. vivax (ILRAD700) and T. congolense (TC13) used for ex vivo and in vivo experiments, were kindly provided by the University of Brussel (VUB).
(§3) Ex Vivo Drug Susceptibility Assays for T. vivax, T. congolense ISM-Resistant, and T. evansi Type B
(§4) For Trypanosoma species/strains that were not adapted to culture conditions, donor mice were infected intraperitoneally with 10^4 parasites. Around day 5-6 post infection, blood was collected via cardiac puncture and parasites were isolated using mini-anion exchange centrifugation technique (mAECT). 4-fold dilutions of the test compounds were prepared with the highest concentration of 64 μM, and parasites were seeded at 1×10^5 parasite/well. Following 24 h of drug exposure at 37° C. and 5% CO2, resazurin was added to the wells and plates were incubated (37° C./5% CO2) for another 24 h. Cell viability was determined by fluorescence reading (Tecan®, GENios), and IC50 values were calculated by non-linear regression (dose-response curve with variable slope) using Prism 8.0 (GraphPad Software Inc., San Diego, CA, USA).

[4] = In vitro evaluation on PMM; assay type: cell-based; details: mouse, Table 3, compounds wherein X=N
[5] = Cytotoxicity assay on MRC-5 fibroblasts; assay type: cell-based; details: human; for IC50 at 3 day: MRC-5SV2 human embryonic lung fibroblasts; for CC50 at 3 day: MRC-5SV2 embryonic lung fibroblasts, Table 1, mean and SEM of two independent experiments, highest concentration 64 μM, read-out: MRC-5 off-target cytotoxicity (CC50)
Method: MRC-5SV2 (Sigma-Aldrich/ECACC, catalogue number 84100401) human embryonic lung fibroblasts were used to perform cytotoxicity assays. The cells were cultured in minimum essential medium (MEM, Life Technologies) with Earle's salt medium, supplemented with L-glutamine, NaHCO3 and 5% inactivated fetal bovine serum (iFBS). Cells were seeded at 1.5×10^4 cells/well and 4-fold compound dilutions were immediately added with a highest in-test concentration of 64 μM. After a 3-day incubation, resazurin (Sigma-Aldrich) was added to each well (final concentration of 10 μg mL^−1), and cell viability was assessed by fluorescent reading (Tecan®, GENios) following 4 h of incubation with resazurin (37° C./5% CO2). The results were expressed as percentage reduction in cell growth/viability compared to control wells and the 50% cytotoxic concentration (CC50) was calculated for each of the compounds.

[6] = tested on: T. cruzi; experiment: In vitro evaluation against T. cruzi; assay type: cell-based; details: Trypanosoma cruzi; Table 3; compounds wherein X=N
[7] = tested on: T. brucei (Squib 427); experiment: In vitro drug susceptibility assay, T. brucei; assay type: cell-based; details: Trypanosoma brucei
Method: as §1

[8] = tested on: L. infantum; experiment: In vitro evaluation against L. infantum; assay type: cell-based; details: Leishmania infantum; Table 3; compounds wherein X=N
[9] = tested on: T. congolense (IL3000); experiment: In vitro drug susceptibility assay, T. congolense; assay type: cell-based; details: Trypanosoma congolense
Method: Drug susceptibility assays for T. congolense (IL3000) were performed with parasites cultured in HMI-9 medium supplemented with 15% horse serum. Parasites were seeded at a concentration of 1.5×10^4 parasite/well and exposed to a 4-fold compound dilution series starting at a highest in-test concentration of 64 μM. Plates were incubated for 72 h at 34° C. and 5% CO2, followed by the addition of resazurin (Sigma, Aldrich) and a further incubation period of 24 h. Cell viability was quantified by fluorescence reading (Tecan®, GENios), and IC50 values were calculated by non-linear regression (dose-response curve with variable slope) using Prism 8.0 (GraphPad Software Inc., San Diego, CA, USA).

[10] = tested on: T. evansi type B (KETRI 2479); experiment: Ex vivo drug susceptibility assay, T. evansi type B; assay type: cell-based; details: Table 2; two independent repeat experiments
Source text: as §2, §3, §4

[11] = In vitro metabolic stability, mouse liver S9; assay type: in vitro ADME; details: for metabolic stability in mouse liver microsomes: mouse liver S9, phase-I, without 1-ABT; for effect of 1-aminobenzotriazole (1-ABT) on phase-I metabolic decay: mouse microsome pre-incubated with 1-ABT
Method: The metabolic stability of selected compounds was determined in the presence of mice, horse, and bovine liver microsome fractions (S9) through phase-I (CYP450 and NADPH dependent enzymes) and Phase-II (UGT enzymes) metabolisms. Samples were collected after 0, 15, 30, and 60 minutes of incubation and the corresponding loss of parent compound was determined via liquid chromatography (UPLC) (Waters Aquity™) coupled with tandem quadrupole mass spectrometry (MS^2) (Waters Xevo™), equipped with an electrospray ionization (ESI) interface and operated in multiple reaction monitoring (MRM) mode.

[12] = tested on: isometamidium (ISM)-resistant T. congolense strain (MSORO M7H); experiment: Ex vivo drug susceptibility assay, T. congolense ISM-resistant; assay type: cell-based; details: Trypanosoma congolense; Table 2; two independent repeat experiments; read-out: IC50 T. congolense ISM-R
Source text: as §2, §3, §4

[13] = Table 3, compounds wherein X=N, type not stated, read-out: IC50 T. evansi
[14] = Table 3, compounds wherein X=N, read-out: IC50 T. vivax
[15] = Table 3, compounds wherein X=N, read-out: IC50 T. brucei
[16] = Table 2, two independent repeat experiments, read-out: IC50 T. evansi (type A)
[17] = Table 2, two independent repeat experiments
[18] = Table 1, mean and SEM of two independent experiments, read-out: T. vivax in vitro activity (IC50)
[19] = Table 2, two independent repeat experiments, read-out: IC50 T. vivax
[20] = Table 1, mean and SEM of two independent experiments, read-out: T. brucei in vitro activity (IC50)
[21] = Table 2, two independent repeat experiments, read-out: IC50 T. brucei

Compound	IC50 [1, 13]	IC50 ([2]; Table 3, compounds wherein X=N)	IC50 [3, 14]	IC50 [4]	IC50 [6]	IC50 [7, 15]	IC50 [8]	IC50 ([9]; Table 3, compounds wherein X=N)	IC50 [3, 18]	IC50 [7, 20]	IC50 at 3 day ([5]; Table 3, compounds wherein X=N)	CC50 at 3 day [5]	further results
C=CCSc1ncnc2c1ccn2[C@@H]1O[C@H](CO)[C@@H](O)[C@H]1O [FH15963, 4-S-allyl-N7-(β-D-ribofuranosyl)pyrrolo[2,3-d]pyrimidine]									34 ± 4 nM	34 ± 1 nM		> 64000 nM	IC50 [1, 16]: 100 ± 5 nM; IC50 [2, 17]: 25 ± 4 nM; IC50 [10]: 14 ± 4 nM; IC50 [3, 19]: 34 ± 4 nM; metabolic stability in mouse liver microsomes [11]: phase-I metabolic degradation; effect of 1-aminobenzotriazole (1-ABT) on phase-I metabolic decay [11]: adequately block phase-I metabolic decay; IC50 at 3 day [5, 17]: > 64000 nM; IC50 [12]: 140 ± 50 nM; IC50 [7, 21]: 34 ± 1 nM; IC50 [9, 17]: 180 ± 8 nM
CSc1ncnc2c1ccn2[C@@H]1O[C@H](CO)[C@@H](O)[C@H]1O [FH15961/CL5565]									5 ± 10 nM	440 ± 1 nM		> 64000 nM	IC50 [1, 16]: 760 ± 30 nM; IC50 [2, 17]: 40 ± 0.2 nM; IC50 [10]: 16 ± 3 nM; IC50 [3, 19]: 4 ± 2 nM; metabolic stability in mouse liver microsomes [11]: phase-I metabolic degradation; effect of 1-aminobenzotriazole (1-ABT) on phase-I metabolic decay [11]: adequately block phase-I metabolic decay; IC50 at 3 day [5, 17]: > 64000 nM; IC50 [12]: 430 ± 20 nM; IC50 [7, 21]: 490 ± 100 nM; IC50 [9, 17]: 43 ± 8 nM
CCCSc1ncnc2c1ccn2[C@@H]1O[C@H](CO)[C@@H](O)[C@H]1O [FH15935, 4-S-propyl-N7-(β-D-ribofuranosyl)pyrrolo[2,3-d]pyrimidine]									23 ± 5 nM	30 ± 0.9 nM		> 64000 nM	
OC[C@H]1O[C@@H](n2ccc3c(SC4CCCC4)ncnc32)[C@H](O)[C@@H]1O [FH15952, 4—S-cyclopentyl-N7-(β-D-ribofuranosyl)pyrrolo[2,3-d]pyrimidine]									620 ± 160 nM	91 ± 1 nM		45500 ± 1870 nM	
OC[C@H]1O[C@@H](n2ccc3c(SCC4CCCC4)ncnc32)[C@H](O)[C@@H]1O [FH15939, 4-cylopentylmethylthio-N7-(β-D-ribofuranosyl)pyrrolo[2,3-d]pyrimidine]									690 ± 250 nM	32 ± 21 nM		32300 ± 1000 nM	

Second part, led by results:

IC50 [1, 13]	IC50 ([2]; Table 3, compounds wherein X=N)	IC50 [3, 14]	IC50 [4]	IC50 [6]	IC50 [7, 15]	IC50 [8]	IC50 ([9]; Table 3, compounds wherein X=N)	IC50 [3, 18]	IC50 [7, 20]	Compound	IC50 at 3 day ([5]; Table 3, compounds wherein X=N)	CC50 at 3 day [5]	further results
100 nM	20 nM	7240 nM	> 64000 nM	6020 nM	50 nM	10100 nM	30 nM			OC[C@H]1O[C@@H](n2ncc3c(SCc4ccccc4)ncnc32)[C@H](O)[C@@H]1O [JB1034, 4-benzylthio-1-β-D-ribofuranosyl-1H-pyrazolo[3,4-d]pyrimidine]	> 64000 nM		
610 nM	90 nM	830 nM	> 64000 nM	2150 nM	540 nM	10800 nM	70 nM			CSc1ncnc2c1cnn2[C@@H]1O[C@H](CO)[C@@H](O)[C@H]1O [JB1031, 4-methylthio-1-β-D-ribofuranosyl-1H-pyrazolo[3,4-d]pyrimidine]	> 64000 nM		
390 nM	50 nM	1420 nM	> 64000 nM	5610 nM	450 nM	5040 nM	290 nM	1360 ± 300 nM	510 ± 50 nM	CCSc1ncnc2c1cnn2[C@@H]1O[C@H](CO)[C@@H](O)[C@H]1O [JB1032, 4-ethylthio-1-β-D-ribofuranosyl-1H-pyrazolo[3,4-d]pyrimidine]	> 64000 nM	> 64000 nM	
60 nM	10 nM	1200 nM	> 64000 nM	7460 nM	110 nM	7250 nM	200 nM	1210 ± 420 nM	260 ± 10 nM	CCCCSc1ncnc2c1cnn2[C@@H]1O[C@H](CO)[C@@H](O)[C@H]1O [JB1033, 4-butylthio-1-β-D-ribofuranosyl-1H-pyrazolo[3,4-d]pyrimidine]	> 64000 nM	> 64000 nM	
